Experimental data: ChEMBL document CHEMBL1201862, “PubChem BioAssay data set” (2004)
Where “and” joins values, the source holds several entries; their conditions need not be identical. Equal values may be shown once. Calls of active or inactive are those of the source.

Columns and labels:
[1] = molecular target: Eukaryotic translation initiation factor 4E (Mus musculus, UniProt P63073); experiment: blockers of eIF4G binding by eIF4E – biochemical, TR-FRET, dose response (AID 855); type: functional;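 further: potency for disrupting eIF4E binding to eIF4GI seen as loss of FRET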
Eukaryotic translation initiation factor 4E, sequence (P63073 whole entry): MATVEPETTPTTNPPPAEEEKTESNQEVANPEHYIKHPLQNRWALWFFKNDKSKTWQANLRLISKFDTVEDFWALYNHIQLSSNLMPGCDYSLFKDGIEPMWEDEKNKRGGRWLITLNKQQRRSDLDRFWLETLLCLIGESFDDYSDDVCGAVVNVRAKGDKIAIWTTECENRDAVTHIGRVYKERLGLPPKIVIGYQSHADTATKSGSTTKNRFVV

H9c2 = experiment: cells; type: functional, cell-based; conditions: Rattus norvegicus, H9c2, Myocardium;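 further: confirmatory concentration-response retest of ultra-high-throughput screening hits for modulation of myocardial damage; cell death induced by hydrogen peroxide oxidative stress; compound pretreatment for 60 min then peroxide exposure for 2 h; potency is for protecting the cells against peroxide damage rather than for killing them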
[2] = molecular target: T1, Voltage-gated N-type calcium channel alpha-1B subunit/Amyloid beta A4 precursor protein-binding family A member 1 (Homo sapiens, UniProt Q00975+Q02410); type: protein assay
T1 sequence (Q00975 whole entry): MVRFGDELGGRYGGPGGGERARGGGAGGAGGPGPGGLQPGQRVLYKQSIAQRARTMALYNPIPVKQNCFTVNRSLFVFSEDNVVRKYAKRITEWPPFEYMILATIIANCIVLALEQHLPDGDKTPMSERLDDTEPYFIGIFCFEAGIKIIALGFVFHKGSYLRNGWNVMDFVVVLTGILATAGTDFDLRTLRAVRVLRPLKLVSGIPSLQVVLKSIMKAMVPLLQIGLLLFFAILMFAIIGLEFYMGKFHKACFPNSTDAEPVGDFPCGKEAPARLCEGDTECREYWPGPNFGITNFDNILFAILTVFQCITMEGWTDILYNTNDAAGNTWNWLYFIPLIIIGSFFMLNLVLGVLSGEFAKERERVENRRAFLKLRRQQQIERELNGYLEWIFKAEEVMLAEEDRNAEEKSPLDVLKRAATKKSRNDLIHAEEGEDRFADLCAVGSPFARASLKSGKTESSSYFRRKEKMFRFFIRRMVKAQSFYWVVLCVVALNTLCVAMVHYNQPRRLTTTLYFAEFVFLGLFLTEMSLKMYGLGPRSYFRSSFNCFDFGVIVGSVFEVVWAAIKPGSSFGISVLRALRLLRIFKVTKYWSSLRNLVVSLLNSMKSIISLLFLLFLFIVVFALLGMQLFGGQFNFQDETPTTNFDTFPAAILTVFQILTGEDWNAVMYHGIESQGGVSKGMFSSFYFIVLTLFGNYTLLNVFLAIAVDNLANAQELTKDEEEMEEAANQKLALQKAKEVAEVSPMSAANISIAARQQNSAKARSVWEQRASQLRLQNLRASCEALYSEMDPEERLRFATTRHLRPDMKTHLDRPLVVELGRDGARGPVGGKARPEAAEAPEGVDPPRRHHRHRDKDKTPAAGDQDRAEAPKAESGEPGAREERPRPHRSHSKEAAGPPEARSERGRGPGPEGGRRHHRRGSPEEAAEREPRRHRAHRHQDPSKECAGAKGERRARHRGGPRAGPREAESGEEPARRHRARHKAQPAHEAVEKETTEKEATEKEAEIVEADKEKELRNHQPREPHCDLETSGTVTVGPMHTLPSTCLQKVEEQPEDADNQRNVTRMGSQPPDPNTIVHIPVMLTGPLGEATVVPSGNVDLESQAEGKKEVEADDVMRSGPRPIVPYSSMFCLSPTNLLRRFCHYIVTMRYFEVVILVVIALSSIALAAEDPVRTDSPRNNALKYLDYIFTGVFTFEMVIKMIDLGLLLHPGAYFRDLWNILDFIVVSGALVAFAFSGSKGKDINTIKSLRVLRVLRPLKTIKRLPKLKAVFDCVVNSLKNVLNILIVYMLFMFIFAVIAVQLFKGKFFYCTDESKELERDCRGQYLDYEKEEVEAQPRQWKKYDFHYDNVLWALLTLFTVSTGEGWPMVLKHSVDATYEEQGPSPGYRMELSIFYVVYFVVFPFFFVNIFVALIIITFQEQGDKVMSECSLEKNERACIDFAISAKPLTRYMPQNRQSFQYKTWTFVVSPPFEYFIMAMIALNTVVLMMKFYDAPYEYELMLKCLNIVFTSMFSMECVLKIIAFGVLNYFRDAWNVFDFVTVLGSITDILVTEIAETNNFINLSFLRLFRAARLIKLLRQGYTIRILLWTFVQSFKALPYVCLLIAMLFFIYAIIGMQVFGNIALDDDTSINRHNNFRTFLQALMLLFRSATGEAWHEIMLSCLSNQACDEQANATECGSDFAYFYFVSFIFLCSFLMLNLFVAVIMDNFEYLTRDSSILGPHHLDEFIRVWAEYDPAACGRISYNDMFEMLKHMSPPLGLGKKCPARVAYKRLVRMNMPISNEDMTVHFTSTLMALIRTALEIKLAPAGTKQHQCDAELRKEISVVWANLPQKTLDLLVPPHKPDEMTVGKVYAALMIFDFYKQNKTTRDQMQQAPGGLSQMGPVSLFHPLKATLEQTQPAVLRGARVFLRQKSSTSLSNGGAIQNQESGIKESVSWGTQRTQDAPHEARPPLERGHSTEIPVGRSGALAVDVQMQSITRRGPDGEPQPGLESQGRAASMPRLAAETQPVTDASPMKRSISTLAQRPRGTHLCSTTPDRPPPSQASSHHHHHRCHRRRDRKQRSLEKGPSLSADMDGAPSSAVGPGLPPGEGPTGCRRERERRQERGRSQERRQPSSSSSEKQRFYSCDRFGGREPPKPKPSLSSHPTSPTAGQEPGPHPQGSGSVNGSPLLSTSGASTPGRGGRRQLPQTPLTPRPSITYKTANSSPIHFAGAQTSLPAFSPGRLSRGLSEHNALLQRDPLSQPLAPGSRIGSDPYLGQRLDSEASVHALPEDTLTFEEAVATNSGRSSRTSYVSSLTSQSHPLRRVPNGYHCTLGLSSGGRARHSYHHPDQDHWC
T1 sequence (Q02410 whole entry): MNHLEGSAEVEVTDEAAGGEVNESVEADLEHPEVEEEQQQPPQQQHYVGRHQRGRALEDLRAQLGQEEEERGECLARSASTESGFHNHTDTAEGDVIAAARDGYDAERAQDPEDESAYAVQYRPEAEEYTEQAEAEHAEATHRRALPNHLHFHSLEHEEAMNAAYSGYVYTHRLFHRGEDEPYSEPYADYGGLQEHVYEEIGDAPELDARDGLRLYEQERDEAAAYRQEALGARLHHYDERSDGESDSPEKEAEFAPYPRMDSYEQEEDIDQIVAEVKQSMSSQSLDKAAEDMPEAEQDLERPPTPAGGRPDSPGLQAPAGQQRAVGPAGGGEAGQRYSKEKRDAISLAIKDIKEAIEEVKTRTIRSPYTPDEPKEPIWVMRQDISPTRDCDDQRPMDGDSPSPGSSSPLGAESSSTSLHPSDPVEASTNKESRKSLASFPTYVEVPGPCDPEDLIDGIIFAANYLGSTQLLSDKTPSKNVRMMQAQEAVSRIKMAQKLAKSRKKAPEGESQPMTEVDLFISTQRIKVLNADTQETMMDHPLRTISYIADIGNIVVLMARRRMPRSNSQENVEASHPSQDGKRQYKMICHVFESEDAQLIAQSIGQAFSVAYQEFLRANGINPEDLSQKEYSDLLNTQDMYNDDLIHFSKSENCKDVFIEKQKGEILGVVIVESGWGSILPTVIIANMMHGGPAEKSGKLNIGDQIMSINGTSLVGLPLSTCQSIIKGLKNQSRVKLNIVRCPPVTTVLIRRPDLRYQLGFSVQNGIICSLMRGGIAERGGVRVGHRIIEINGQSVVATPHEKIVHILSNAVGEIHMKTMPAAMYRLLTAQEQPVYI

[3] = molecular target: Glucose-6-phosphate 1-dehydrogenase (Homo sapiens, UniProt P11413); experiment: inhibition of Homo sapiens G6PD, dose series – biochemical, fluorescence, selectivity assay for P. falciparum G6PD inhibitor project, dose response (AID 504792); type: functional
[4] = molecular target: Bifunctional protein GlmU (Mycobacterium tuberculosis, UniProt P9WMN3); experiment: Inhibitors of Mycobacterial Glucosamine-1-phosphate acetyl transferase (GlmU). Secondary screen.; set-up: species or system Mycobacterium tuberculosis H37Rv
Bifunctional protein GlmU, sequence (P9WMN3 whole entry): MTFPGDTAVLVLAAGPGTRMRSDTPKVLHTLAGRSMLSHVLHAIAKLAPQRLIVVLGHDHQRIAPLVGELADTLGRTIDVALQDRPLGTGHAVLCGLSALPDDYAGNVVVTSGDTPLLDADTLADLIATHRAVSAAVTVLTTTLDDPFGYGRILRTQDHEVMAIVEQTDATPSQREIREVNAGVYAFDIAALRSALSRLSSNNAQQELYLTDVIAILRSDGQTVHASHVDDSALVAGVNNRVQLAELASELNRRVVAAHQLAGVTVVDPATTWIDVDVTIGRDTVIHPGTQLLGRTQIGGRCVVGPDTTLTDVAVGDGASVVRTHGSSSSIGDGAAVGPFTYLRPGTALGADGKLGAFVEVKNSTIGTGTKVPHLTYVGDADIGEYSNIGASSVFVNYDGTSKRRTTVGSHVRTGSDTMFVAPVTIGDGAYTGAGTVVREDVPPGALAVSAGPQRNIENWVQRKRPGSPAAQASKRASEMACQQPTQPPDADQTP

[5] = molecular target: T1, Voltage-gated N-type calcium channel alpha-1B subunit/Amyloid beta A4 precursor protein-binding family A member 1; type: protein assay; remark: listed apart in the source
BJ [6] = experiment: cells; type: functional, cell-based; conditions: Homo sapiens
[7] = alpha-synuclein stem-loop luciferase translation blockers – H4 neuroglioma cells, luminescence, confirmation (AID 1988); type: functional, cell-based
BJ [8] = experiment: BJ-TERT-LT-ST fibroblast viability loss – cell-based, RAS-independent, luminescence, dose response (AID 1935); type: functional; conditions: Homo sapiens;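 further: BJ fibroblasts immortalized with TERT plus LT and ST oncogenes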
[9] = DRD fibroblast viability loss – cell-based, non-viral oncogenic, luminescence, dose response (AID 1934); type: functional; conditions: Homo sapiens
[10] = molecular target: Heat shock protein HSP 90-alpha (Homo sapiens, UniProt P07900); experiment: Luminescence-based dose response biochemical high throughput screening assay for inhibitors of the Heat Shock Protein 90 (HSP90). [Related pubchem assays: 1831 (Summary AID.), 1846 (Confirmation screen.), 1789 (Primary screen.)]
[11] = Luminescence Cell-Based Dose Response HTS to Identify Inhibitors of 5'UTR Stem-Loop Driven Prion Protein mRNA Translation in H4 Neuroglioblastoma Cells. [Related pubchem assays: 1827 (Project Summary), 1813 (Primary HTS)]; type: functional
[12] = luciferase reporter signal suppression in cells – H4 neuroglioma cells, luminescence, dose response (AID 1990); type: functional, cell-based
[13] = molecular target: T2, Ubiquitin-conjugating enzyme E2 N (Homo sapiens, UniProt P61088); type: functional;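 further: Dose-response confirmation in a TR-FRET assay detecting UBC13-driven polyubiquitin chain formation, inhibition measured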
T2 sequence (P61088 whole entry): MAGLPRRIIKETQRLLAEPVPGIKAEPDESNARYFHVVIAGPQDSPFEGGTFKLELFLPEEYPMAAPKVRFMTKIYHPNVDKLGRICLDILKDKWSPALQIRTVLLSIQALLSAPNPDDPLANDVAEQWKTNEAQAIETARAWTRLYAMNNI

[14] = microbe, parasite or virus in culture; type: functional; conditions: Mycobacterium tuberculosis
BJ [15] = experiment: BJ-TERT fibroblast viability loss – cell-based, RAS-independent, luminescence, dose response (AID 1933); type: functional; conditions: Homo sapiens
[16] = molecular target: Aryl hydrocarbon receptor (Homo sapiens, UniProt P35869); experiment: Luminescence-based cell-based high throughput dose response assay for activators of the Aryl Hydrocarbon Receptor (AHR). [Related pubchem assays: 2796 (Primary screen (AHR activators in singlicate)), 2845 (Confirmation screen (AHR activators in triplicate)), 434939 (Counterscreen (PXR activators in triplicate)), 2804 (Summary (AHR activators))]; type: ADME
Aryl hydrocarbon receptor, sequence (P35869 whole entry): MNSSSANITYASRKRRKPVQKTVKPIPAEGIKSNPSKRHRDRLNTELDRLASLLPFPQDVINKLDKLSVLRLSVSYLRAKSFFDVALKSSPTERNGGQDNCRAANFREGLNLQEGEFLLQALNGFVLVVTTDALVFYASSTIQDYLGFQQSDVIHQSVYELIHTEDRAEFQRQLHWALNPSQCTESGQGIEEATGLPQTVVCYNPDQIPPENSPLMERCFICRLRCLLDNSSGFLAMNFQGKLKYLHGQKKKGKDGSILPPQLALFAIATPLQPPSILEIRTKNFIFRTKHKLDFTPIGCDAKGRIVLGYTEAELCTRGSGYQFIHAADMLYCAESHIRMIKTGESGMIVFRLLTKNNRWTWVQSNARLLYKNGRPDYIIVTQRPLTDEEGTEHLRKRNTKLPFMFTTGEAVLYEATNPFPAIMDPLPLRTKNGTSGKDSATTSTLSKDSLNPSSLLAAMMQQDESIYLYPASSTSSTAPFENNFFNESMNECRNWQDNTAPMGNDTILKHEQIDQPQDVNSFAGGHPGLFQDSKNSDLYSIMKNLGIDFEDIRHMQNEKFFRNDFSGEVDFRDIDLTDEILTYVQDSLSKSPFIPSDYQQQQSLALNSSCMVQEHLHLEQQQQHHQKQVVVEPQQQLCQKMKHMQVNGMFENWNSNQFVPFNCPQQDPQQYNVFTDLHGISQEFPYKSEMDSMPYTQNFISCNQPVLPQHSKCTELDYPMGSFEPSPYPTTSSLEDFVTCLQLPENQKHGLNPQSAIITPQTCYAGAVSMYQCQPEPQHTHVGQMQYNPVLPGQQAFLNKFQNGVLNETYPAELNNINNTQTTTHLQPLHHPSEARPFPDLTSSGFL

INS1 = experiment: INS-1E survival protection against cytokine death – cell-based, luminescence, retest, dose response (AID 449756); type: functional; conditions: Rattus norvegicus;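 further: cell death triggered by IL-1 beta plus TNF-alpha plus IFN-gamma mixture; protective hits raise ATP signal compared with cytokine alone wells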
[17] = NIH3T3 cell viability loss – ATP luminescence, mouse fibroblasts, counter-screen, dose response (AID 2010); type: functional, cell-based;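 further: cells exposed to compound for about 90 hours before reading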
Paired box protein Pax-8 = Paired box protein Pax-8 (Homo sapiens, UniProt Q06710); experiment: PAX8 transcriptional activity inhibition in RMG-I – RMG-I cells, luciferase, cherry-pick, dose response (AID 687027); type: functional, cell-based;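 further: luciferase reporter driven by Pax8 target thyroperoxidase promoter measured by SteadyGlo luminescence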
[18] = Trypanosoma cruzi growth suppression in host cells – NIH3T3 host cells, beta-gal luminescence, confirmation (AID 2044); type: functional, cell-based;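 further: intracellular parasites grown in NIH/3T3 mouse fibroblasts as host cells; luminescent beta-galactosidase reporter signal from transgenic T. cruzi replicating inside host cells; inhibitors lower the luminescence signal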
[19] = reduction of Shn3 3'UTR-driven luciferase in osteoblasts – cell-based, Clone20 osteoblasts, firefly luciferase, cherry-picked, dose response (AID 624132); type: functional;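 further: firefly luciferase luminescence from reporter carrying the Shn3 3'UTR in osteoblasts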
[20] = loss of viability in HepG2 cells – cell-based, CellTiter-Glo, cherry-picked, cytotoxicity control for Shn3 inhibitor project, dose response (AID 624134); type: functional
[21] = non-specific 3'UTR reporter inhibition in Clone20-Shn3RL – cell-based, Renilla luciferase, cherry-picked, counter-screen for Shn3 inhibitor project, dose response (AID 624133); type: functional
[22] = viability of HCT116 lacking mutant beta-catenin – cell-based, human colon tumor, dose response (AID 1045); type: functional;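 further: HCT116 colon tumor cells with beta catenin knocked out; cells exposed to compound for 60 hours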
Estrogen receptor beta = Estrogen receptor beta (Homo sapiens, UniProt Q92731); experiment: blockers of SRC-3 recruitment to ERβ – biochemical, ELISA, streptavidin-HRP readout, orthogonal assay, confirmation (AID 1060)
Bcl-2-related protein A1 [23] = molecular target: T3, Bcl-2-related protein A1 (Mus musculus, UniProt Q07440); experiment: small-molecule antagonists of Bfl-1/BH3 interaction – biochemical, TR-FRET, mouse Bfl-1, confirmation (AID 621);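 further: TR-FRET binding of GST-Bfl-1 to FITC-labelled Bid peptide via terbium antibody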
T3 sequence (Q07440 whole entry): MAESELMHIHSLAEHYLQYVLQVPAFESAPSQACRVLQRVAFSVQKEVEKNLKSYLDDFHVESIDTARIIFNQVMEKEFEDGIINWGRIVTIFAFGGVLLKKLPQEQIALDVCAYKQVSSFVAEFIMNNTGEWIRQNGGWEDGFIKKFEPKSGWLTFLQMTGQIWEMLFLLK

Bcl-2-related protein A1 [24] = molecular target: T3, Bcl-2-related protein A1; experiment: Bfl-1 binding inhibitors, SAR follow-up, biochemical, fluorescence polarization (AID 1070)
Bcl-2-related protein A1 [25] = molecular target: T3, Bcl-2-related protein A1; experiment: displacement of Bid BH3 peptide from Bfl-1 – biochemical, fluorescence polarization, FITC-Bid, mouse, primary screen (AID 432)
[26] = molecular target: Glyceraldehyde-3-phosphate dehydrogenase (Homo sapiens, UniProt P04406)
Glyceraldehyde-3-phosphate dehydrogenase, sequence (P04406 whole entry): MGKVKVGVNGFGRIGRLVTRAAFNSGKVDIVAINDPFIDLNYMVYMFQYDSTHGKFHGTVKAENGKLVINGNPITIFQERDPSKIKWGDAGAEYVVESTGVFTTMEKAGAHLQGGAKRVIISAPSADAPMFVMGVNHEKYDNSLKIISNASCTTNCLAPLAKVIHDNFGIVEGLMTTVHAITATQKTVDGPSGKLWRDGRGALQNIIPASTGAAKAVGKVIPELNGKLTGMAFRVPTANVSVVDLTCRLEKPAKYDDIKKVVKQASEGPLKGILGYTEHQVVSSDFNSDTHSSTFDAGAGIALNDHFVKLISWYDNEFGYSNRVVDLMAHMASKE

[27] = viability of PTEN-deleted HCT116 cells – cell-based, HCT116 PTEN knockout, dose response (AID 1047); type: functional;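 further: HCT116 colon tumor cells with PTEN knocked out; cells exposed to compound for 60 hours before readout; potency for loss of cell viability measured by luminescence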
[28] = molecular target: T4, Mannose-6-phosphate isomerase (Homo sapiens, UniProt P34949); experiment: MPI inhibition at elevated mannose 6-phosphate – biochemical, fluorescence intensity, high mannose 6-phosphate, primary screen (AID 1220)
T4 sequence (P34949 whole entry): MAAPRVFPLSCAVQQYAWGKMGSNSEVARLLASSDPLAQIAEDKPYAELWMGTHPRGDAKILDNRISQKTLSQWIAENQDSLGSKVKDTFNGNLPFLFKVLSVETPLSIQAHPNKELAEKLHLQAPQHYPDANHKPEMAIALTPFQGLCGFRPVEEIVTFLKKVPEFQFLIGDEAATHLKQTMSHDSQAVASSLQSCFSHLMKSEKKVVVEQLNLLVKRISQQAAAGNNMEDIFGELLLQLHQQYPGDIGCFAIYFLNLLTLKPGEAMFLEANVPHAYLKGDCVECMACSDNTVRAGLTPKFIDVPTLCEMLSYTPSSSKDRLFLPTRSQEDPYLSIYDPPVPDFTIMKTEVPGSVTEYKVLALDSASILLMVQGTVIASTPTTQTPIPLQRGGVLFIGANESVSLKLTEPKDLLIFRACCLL

Insulin-degrading enzyme = molecular target: T5, Insulin-degrading enzyme (Homo sapiens, UniProt P14735); experiment: Dose Response: Fluorescence polarization-based cell-based high throughput dose response assay for inhibitors of insulin-degrading enzyme (IDE). [Related pubchem assays: 434962 (Primary screen (IDE inhibitors in singlicate)), 449730 (Counterscreen (Cytotoxicity in triplicate)), 435028 (Confirmation (IDE inhibitors in triplicate)), 434984 (Summary …; type: functional
T5 sequence (P14735 whole entry): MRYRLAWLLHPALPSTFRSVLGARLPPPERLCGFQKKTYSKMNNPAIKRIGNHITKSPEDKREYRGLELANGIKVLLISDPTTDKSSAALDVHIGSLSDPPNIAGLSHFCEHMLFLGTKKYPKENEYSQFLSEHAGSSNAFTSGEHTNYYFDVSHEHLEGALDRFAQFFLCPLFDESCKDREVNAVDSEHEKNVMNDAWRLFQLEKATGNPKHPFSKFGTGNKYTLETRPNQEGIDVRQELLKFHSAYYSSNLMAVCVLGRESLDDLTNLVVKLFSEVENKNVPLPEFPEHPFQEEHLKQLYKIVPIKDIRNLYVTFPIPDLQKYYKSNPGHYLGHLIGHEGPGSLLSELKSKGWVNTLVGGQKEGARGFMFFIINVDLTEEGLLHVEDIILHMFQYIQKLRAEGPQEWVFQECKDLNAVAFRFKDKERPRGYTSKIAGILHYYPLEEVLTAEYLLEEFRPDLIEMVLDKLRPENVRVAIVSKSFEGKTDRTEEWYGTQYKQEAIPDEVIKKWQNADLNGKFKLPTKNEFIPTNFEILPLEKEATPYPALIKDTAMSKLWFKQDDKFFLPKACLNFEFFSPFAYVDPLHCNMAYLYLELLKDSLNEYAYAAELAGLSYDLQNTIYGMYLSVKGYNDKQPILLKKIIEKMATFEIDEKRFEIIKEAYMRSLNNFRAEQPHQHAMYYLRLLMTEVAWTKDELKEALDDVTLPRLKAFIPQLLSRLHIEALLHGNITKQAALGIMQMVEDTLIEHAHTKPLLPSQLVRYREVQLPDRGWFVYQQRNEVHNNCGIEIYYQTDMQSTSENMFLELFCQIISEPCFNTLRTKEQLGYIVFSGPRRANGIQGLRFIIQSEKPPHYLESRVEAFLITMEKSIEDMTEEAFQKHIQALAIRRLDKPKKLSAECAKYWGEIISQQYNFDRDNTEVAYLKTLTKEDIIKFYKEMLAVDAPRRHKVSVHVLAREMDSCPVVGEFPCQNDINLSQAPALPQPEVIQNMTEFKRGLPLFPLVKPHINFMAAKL

O=C1Nc2ccccc2C(=O)C1(Cl)Cc1ccccc1 (stereo not drawn)
IC50 [1]: > 64 µM (inactive)
IC50 (H9c2): 17.2 µM (active)
IC50 [2]: 23.3 µM (active)
IC50 [3]: > 80 µM (inactive)
IC50 [4]: 62.9 µM (active)
IC50 [5]: > 50 µM (inactive)

COc1ccc(-c2cc3c(=O)n(CC(=O)NCCCN4CCC(Cc5ccccc5)CC4)ncn3n2)cc1
EC50 (BJ [6]): 16.4 µM (active)
EC50 [7]: 8.06 µM (active)
EC50 (BJ [8]): 12.9 µM (inconclusive)
EC50 [9]: 8.08 µM (active)
IC50 [10]: 6.82 µM (active)
EC50 [11]: 11.4 µM (active)
EC50 [12]: 9.23 µM (inconclusive)
IC50 [13]: > 20 µM (inactive)
CC50 [14]: 34.2 µM (active)
EC50 (BJ [15]): 10.1 µM (active)

CCc1ccc2[nH]c3nc(N/N=C/c4ccc(O)cc4O)nnc3c2c1
EC50 [16]: > 91.7 µM (not active)
AC50 (INS1): 1.58 µM (active)
EC50 [17]: 17.7 µM (active)
AC50 (Paired box protein Pax-8): 2.7 µM (active)
EC50 [18]: 2.44 µM (active)

c1ccc(Nc2nc(NCC3CCCO3)c3ccccc3n2)cc1 (stereo not drawn)
AC50 [19]: 21.7 µM (active)
AC50 [20]: 7.09 µM (active)
EC50 (cells): 131 nM (active)
EC50 [17]: > 60 µM (not active)
AC50 [21]: 4.84 µM (active)
EC50 [18]: < 0.1 µM (active)

CC1CCN(Cc2ccc(NC(=O)C3CCN(c4nnc(-n5cccc5)s4)CC3)cc2)CC1
EC50 [22]: 61.6 µM (active)
IC50 (Estrogen receptor beta): 1.1 µM (not active)
IC50 (Bcl-2-related protein A1 [23]): 35.1 µM (active) and > 100 µM (not active)
IC50 (Bcl-2-related protein A1 [24]): 20.8 µM (active)
IC50 (Bcl-2-related protein A1 [25]): > 100 µM (not active)
IC50 [26]: > 100 µM (not active)
EC50 [27]: 21.4 µM (active)

O=c1[nH]c2ccccc2c(O)c1O
IC50 [28]: 9.69 µM (active)
IC50 [2]: 28.5 µM (active)
IC50 (Insulin-degrading enzyme): 3.28 µM (active)
IC50 [5]: 2.71 µM (active)
